Like-named read-outs stand apart in the source and are kept apart here. Blank lines part the entries; values can stand above or below the compound they belong to.
How the values were obtained:
[1] = test system: extrinsic coagulation pathway; assay: Prothrombin time (PT) and INR in human citrated plasma
Description: The first stage assessed the changes in plasma hemostasis occurring under the influence of the five test compounds. Plasma was incubated with the tested compounds and ligands at six different concentrations ranging from 0.5 to 100 µmol/L. The plasma was obtained from five different volunteers. To evaluate the impact on the extrinsic coagulation pathway, the prothrombin time (PT) was determined in human citrated plasma, expressed in seconds and as the international normalized ratio (INR) (Figure 6 and Figure 7).
(§1) The plasma was used for the hemostasis tests.
The results are presented as means ± standard deviation (SD).

[2] = test system: intrinsic coagulation pathway; conditions: 100 µmol/L (highest concentration), mean within reference range 26.7–40.0 s
Description: To evaluate the intrinsic coagulation pathway, the plasma was mixed with the tested compounds at the same concentrations as in the PT analysis, and the activated partial thromboplastin time (APTT) was measured.
as §1
The PT, APTT and TT were measured using a Coag Chrom 3003 coagulometer (Bio-Ksel, Grudziadz, Poland) according to the manufacturer’s instructions, using commercially available reagents (Bio-Ksel, Grudziadz, Poland). The experiment was conducted as three independent experiments (in duplicate); distilled water or methanol was used as the control.

[3] = test system: clot formation and fibrinolysis in human citrate plasma; assay: Clot formation and fibrinolysis test (CL-test); conditions: for CLAUC overall potential for clot formation and fibrinolysis / Fmax maximum clotting / Fvo initial plasma clotting velocity / Lmax maximum lysis / Lvo initial clot fibrinolysis velocity / Sc area under the curve of stable clot formation / Sf area under the fibrinolysis curve / Sr area under the clot formation curve / Tc clot stabilization time / Tf plasma clotting time / Tl fibrinolysis time / Tt thrombin time: mean, n = 3
Description: Following this, the impact of the tested complex compounds and their ligands on the overall clot formation and fibrinolysis potential (CLAUC) and individual kinetic parameters was assessed using the CL-test. The analysis was performed using plasma from three different donors.
The blood samples used were residual materials from routine diagnostic studies, destined for disposal as medical waste. […] Platelet-poor plasma (PPP) and red blood cells were obtained using centrifugation at 3000× g for 10 min at room temperature using a Mikro 22R centrifuge (Hettich Zentrifugen, Tuttlingen, Germany). The plasma was used for the hemostasis tests. Before use, the centrifuged erythrocyte mass was washed three times with physiological saline solution to remove the plasma protein residues and other blood cells.
The influence of the compounds on the overall hemostasis potential was determined using the CL-test through continuous measurement of changes in optical transmittance, as described previously [53, 54]. The experiments were conducted using three-fold diluted human citrate plasma, t-PA and thrombin. […] The results are presented as means ± SD (n = 3). The curves were used to determine the kinetic parameters of clot formation, stabilization and fibrinolysis using dedicated software [51]. The following parameters of clot formation were determined: Tt—thrombin time (s), Fmax—maximum clotting (%T), Tf—plasma clotting time (s), Fvo—initial plasma clotting velocity (%T/min), Sr—area under the clot formation curve (%Txmin). The parameters of the clot stabilization phase comprised Tc—clot stabilization time (s) and Sc—area under the curve of stable clot formation (%Txmin). The parameters of fibrinolysis comprised Lmax—maximum lysis (%T), Tl—fibrinolysis time (s), Lvo—initial clot fibrinolysis velocity (%T/min) and Sf—area under the fibrinolysis curve (%Txmin). Additionally, the overall potential for clot formation and fibrinolysis, i.e., CLAUC (%Txmin), was also estimated.

[4] = test system: melanoma A375 tumor cell line; assay: MTT reduction assay, A375 melanoma cells; type: cell-based, human
Description: (§2) The cytotoxic activity was measured against the melanoma A375 tumor cell line (ECACC) and the human BJ fibroblast cell line (ATCC) using an MTT reduction assay. The selectivity index (SI) was calculated using the following formula: SI = IC50 (BJ)/ IC50 (A375).
The A375 cell line was purchased from the European Collection of Authenticated Cell Cultures (ECACC, Salisbury, UK) and the BJ human fibroblast cell line from the American Type Culture Collection (ATCC, Manassas, VA, USA). All the cell lines were grown as a monolayer in standard conditions: 37 °C, 100% humidity, under an atmosphere of 5% CO2. […] The BJ cell line was grown in EMEM with EBSS, NEAA and sodium pyruvate with L-Glutamine supplemented, 10% fetal bovine serum and 50 IU/mL penicillin/streptomycin.
(§3) Next, the cells were seeded in 96-well plates at a density of 5000 cells per well and incubated overnight to reach the logarithmic growth phase. […] After 72 h, 10 µL of MTT solution (5 g/L) was added into each well and incubated for an additional four hours. Subsequently, the medium was removed, and 100 µL of dimethyl sulfoxide (DMSO) was added into each well. The absorbance was then measured at 570 nm using a SPECTROstar Nano microplate reader (BMG Biotech Inc., Cary, NC, USA)/Tecan Spark 10M. The mean value from three independent BJ and A375 cell cultures was taken to calculate the cell viability, expressed as a percentage of the control values, i.e., untreated cells assumed as 100%.

[5] = test system: human BJ fibroblast cell line; assay: MTT reduction assay, BJ fibroblasts; type: cell-based; conditions: 72 h
Description: as §2
The A375 cell line was purchased from the European Collection of Authenticated Cell Cultures (ECACC, Salisbury, UK) and the BJ human fibroblast cell line from the American Type Culture Collection (ATCC, Manassas, VA, USA). All the cell lines were grown as a monolayer in standard conditions: 37 °C, 100% humidity, under an atmosphere of 5% CO2. The A375 cells were cultured in Dulbecco’s Modified Eagle Medium supplemented with 15% fetal calf serum and 50 IU/mL penicillin/streptomycin. The BJ cell line was grown in EMEM with EBSS, NEAA and sodium pyruvate with L-Glutamine supplemented, 10% fetal bovine serum and 50 IU/mL penicillin/streptomycin.
as §3

red blood cells (RBCs) = assay: Erythrotoxicity (RBC hemolysis, lysis assay); type: cell-based, human; conditions: 24 h, 50 µmol/L and 100 µmol/L, 2% RBC suspension
Description: Their erythrotoxicity was also assessed. Red blood cells are model cells used in basic studies of the biocompatibility of new compounds and some medical materials. […] The amount of hemoglobin released from damaged cells was measured using a spectrophotometer.
Erythrotoxicity was assessed in a 2% erythrocyte suspension following 1 h and 24 h of incubation with the tested compounds.
as §1
The influence of the compounds on the red blood cells (RBCs)’ membrane integrity was assessed using a lysis assay, as described previously. Briefly, the tested compounds (1 to 100 μmol/L) were incubated in a 2% RBC suspension in 0.9% NaCl at 37 °C for 24 h; solvent was used as the control. The samples were then centrifuged at 3000× g for 10 min, and the absorbance of the supernatant was determined at 550 nm (maximum absorbance for hemoglobin). The results are presented as the degree of hemolysis, i.e., the percentage of released hemoglobin. A sample containing Triton X-100 was used as the positive control (100% hemolysis), whereas a sample of saline solution represented spontaneous hemolysis of the RBCs (control).

prolongation of PT and INR beyond the reference range ([1]; up to 100 µmol/L, reference PT 9.7–14.6 s, INR 0.8–1.2): do not cause pathological prolongation | effect on APTT ([2]; listed as metronidazole complex with Ag2SO4): significantly prolonged | effect on APTT ([2]; listed as metronidazole with Ag2SO4): statistically significant prolongation | CLAUC overall potential for clot formation and fibrinolysis ([3]; 0.5 µmol/L): 348.3 %*min | Fmax maximum clotting ([3]; 0.5 µmol/L): 70.6% | Fvo initial plasma clotting velocity ([3]; 0.5 µmol/L): 160.0 %/min | Lmax maximum lysis ([3]; 0.5 µmol/L): 69.8% | Lvo initial clot fibrinolysis velocity ([3]; 0.5 µmol/L): 20.3 %/min | Sc area under the curve of stable clot formation ([3]; 0.5 µmol/L): 165.1 %*min | Sf area under the fibrinolysis curve ([3]; 0.5 µmol/L): 135.9 %*min | Sr area under the clot formation curve ([3]; 0.5 µmol/L): 47.3 %*min | Tc clot stabilization time ([3]; 0.5 µmol/L): 144.3 s | Tf plasma clotting time ([3]; 0.5 µmol/L): 59.1 s | Tl fibrinolysis time ([3]; 0.5 µmol/L): 196.7 s | Tt thrombin time ([3]; 0.5 µmol/L): 20.1 s | CLAUC overall potential for clot formation and fibrinolysis ([3]; 1.0 µmol/L): 417.7 %*min | Fmax maximum clotting ([3]; 1.0 µmol/L): 73.8% | Fvo initial plasma clotting velocity ([3]; 1.0 µmol/L): 181.0 %/min | Lmax maximum lysis ([3]; 1.0 µmol/L): 73.5% | Lvo initial clot fibrinolysis velocity ([3]; 1.0 µmol/L): 19.8 %/min | Sc area under the curve of stable clot formation ([3]; 1.0 µmol/L): 207.8 %*min | Sf area under the fibrinolysis curve ([3]; 1.0 µmol/L): 157.6 %*min | Sr area under the clot formation curve ([3]; 1.0 µmol/L): 52.4 %*min | Tc clot stabilization time ([3]; 1.0 µmol/L): 174.3 s | Tf plasma clotting time ([3]; 1.0 µmol/L): 61.2 s | Tl fibrinolysis time ([3]; 1.0 µmol/L): 226.3 s | Tt thrombin time ([3]; 1.0 µmol/L): 20.5 s | CLAUC overall potential for clot formation and fibrinolysis ([3]; 5.0 µmol/L): 411.1 %*min | Fmax maximum clotting ([3]; 5.0 µmol/L): 78.6% | Fvo initial plasma clotting velocity ([3]; 5.0 µmol/L): 212.3 %/min | Lmax maximum lysis ([3]; 5.0 µmol/L): 77.9% | Lvo initial clot fibrinolysis velocity ([3]; 5.0 µmol/L): 24.8 %/min | Sc area under the curve of stable clot formation ([3]; 5.0 µmol/L): 210.7 %*min | Sf area under the fibrinolysis curve ([3]; 5.0 µmol/L): 155.5 %*min | Sr area under the clot formation curve ([3]; 5.0 µmol/L): 44.8 %*min | Tc clot stabilization time ([3]; 5.0 µmol/L): 166.7 s | Tf plasma clotting time ([3]; 5.0 µmol/L): 50.2 s | Tl fibrinolysis time ([3]; 5.0 µmol/L): 204.7 s | Tt thrombin time ([3]; 5.0 µmol/L): 19.7 s | CLAUC overall potential for clot formation and fibrinolysis ([3]; 10.0 µmol/L): 406.3 %*min | Fmax maximum clotting ([3]; 10.0 µmol/L): 75.7% | Fvo initial plasma clotting velocity ([3]; 10.0 µmol/L): 178.3 %/min | Lmax maximum lysis ([3]; 10.0 µmol/L): 75.0% | Lvo initial clot fibrinolysis velocity ([3]; 10.0 µmol/L): 21.5 %/min | Sc area under the curve of stable clot formation ([3]; 10.0 µmol/L): 203.7 %*min | Sf area under the fibrinolysis curve ([3]; 10.0 µmol/L): 156.2 %*min | Sr area under the clot formation curve ([3]; 10.0 µmol/L): 46.4 %*min | Tc clot stabilization time ([3]; 10.0 µmol/L): 166.7 s | Tf plasma clotting time ([3]; 10.0 µmol/L): 55.0 s | Tl fibrinolysis time ([3]; 10.0 µmol/L): 208.3 s | Tt thrombin time ([3]; 10.0 µmol/L): 20.7 s | CLAUC overall potential for clot formation and fibrinolysis ([3]; 50.0 µmol/L): 421.1 %*min | Fmax maximum clotting ([3]; 50.0 µmol/L): 76.9% | Fvo initial plasma clotting velocity ([3]; 50.0 µmol/L): 159.6 %/min | Lmax maximum lysis ([3]; 50.0 µmol/L): 74.3% | Lvo initial clot fibrinolysis velocity ([3]; 50.0 µmol/L): 21.7 %/min | Sc area under the curve of stable clot formation ([3]; 50.0 µmol/L): 184.0 %*min | Sf area under the fibrinolysis curve ([3]; 50.0 µmol/L): 175.2 %*min | Sr area under the clot formation curve ([3]; 50.0 µmol/L): 47.5 %*min | Tc clot stabilization time ([3]; 50.0 µmol/L): 158.7 s | Tf plasma clotting time ([3]; 50.0 µmol/L): 58.4 s | Tl fibrinolysis time ([3]; 50.0 µmol/L): 200.7 s | Tt thrombin time ([3]; 50.0 µmol/L): 20.7 s | CLAUC overall potential for clot formation and fibrinolysis ([3]; 100.0 µmol/L): 390.3 %*min | Fmax maximum clotting ([3]; 100.0 µmol/L): 72.3% | Fvo initial plasma clotting velocity ([3]; 100.0 µmol/L): 159.3 %/min | Lmax maximum lysis ([3]; 100.0 µmol/L): 72.0% | Lvo initial clot fibrinolysis velocity ([3]; 100.0 µmol/L): 22.1 %/min | Sc area under the curve of stable clot formation ([3]; 100.0 µmol/L): 194.4 %*min | Sf area under the fibrinolysis curve ([3]; 100.0 µmol/L): 145.2 %*min | Sr area under the clot formation curve ([3]; 100.0 µmol/L): 50.8 %*min | Tc clot stabilization time ([3]; 100.0 µmol/L): 166.3 s | Tf plasma clotting time ([3]; 100.0 µmol/L): 62.6 s | Tl fibrinolysis time ([3]; 100.0 µmol/L): 219.7 s | Tt thrombin time ([3]; 100.0 µmol/L): 20.5 s
SMILES: Cc1ncc([N+](=O)[O-])n1CCO.Cc1ncc([N+](=O)[O-])n1CCO.Cc1ncc([N+](=O)[O-])n1CCO.Cc1ncc([N+](=O)[O-])n1CCO.O=S(=O)([O-])[O-].[Ag+].[Ag+] [[(MTZ)2Ag]2SO4, metronidazole silver(I) sulfate]

SMILES: O=[N+]([O-])[O-].[Ag+] [AgNO3, silver(I) nitrate]
effect on A375 cell viability ([4]; 72 h of exposure): dose-dependent reduction | IC50 ([4]; MTT, 72 h): 11.1 ± 0.8 µM | IC50 [5]: > 100 µM | erythrocyte hemolysis (red blood cells (RBCs)): > 60% | effect on CLAUC and kinetic parameters of clot formation and lysis ([3]; entire concentration range 0.5–100 µmol/L): no significant differences

effect on prothrombin time (PT) ([1]; 100 µmol/L, human citrated plasma): significantly lengthened
SMILES: O=S(=O)([O-])[O-].[Ag+].[Ag+] [Ag2SO4, reference compound]
erythrocyte hemolysis (red blood cells (RBCs)): > 60%
